# pIC50: −log10 of the molar value. Where two headings read alike, the source gives them in different places.
# Assays:
# [1] = test system: Trypanosoma cruzi; assay: Antiparasitic assay, Trypanosoma cruzi; type: cell-based; conditions: for pIC50: mean of duplicate assays, read-out: T. Cruzi IC50
# Source text: (§1) The set of compounds were screened against a panel of four parasitic protozoa: Trypanosoma brucei rhodesiense, Trypanosoma cruzi, Leishmania donovani and Plasmodium falciparum K1 dual drug-resistant strain.
# (§2) Detailed protocols for these assays have been described elsewhere.
# [2] = test system: Pf W2 clone; conditions: cited from earlier work
# [3] = test system: Plasmodium falciparum (Pf) D6 clone; design: method as in PMID 20337497; conditions: cited from earlier work
# [4] = test system: Vero cell line; design: method as in PMID 20337497; conditions: cited from earlier work
# [5] = test system: L6 rat skeletal myoblast cell line; assay: L6 cytotoxicity assay; type: cell-based
# [6] = test system: Plasmodium falciparum K1 dual drug-resistant strain; assay: Antiparasitic assay, Plasmodium falciparum K1; type: cell-based; conditions: for SI Pf, antiplasmodial selectivity index = L6 IC50/P f. IC50: L6 versus P. falciparum K1
# Source text: as §1, §2
# [7] = test system: panel of human tumour cell lines (NCI 60 cell-line panel); assay: cells; conditions: for tumour cell mean growth: preliminary single dose (10 μM) testing
# Source text: Protocols of testing at the DTP, NCI have been described elsewhere.
# [8] = L6 cytotoxicity assay; type: cell-based, rat; conditions: rat, mean of duplicate assays
# [9] = test system: Leishmania donovani; assay: Antiparasitic assay, Leishmania donovani; type: cell-based; conditions: for pIC50: mean of duplicate assays, read-out: L. Don. IC50
# Source text: as §1, §2
# [10] = cited from earlier work
# [11] = test system: Trypanosoma brucei rhodesiense; assay: Antiparasitic assay, Trypanosoma brucei rhodesiense; type: cell-based; conditions: for pIC50: read-out: T. B. Rhod. IC50
# Source text: as §1, §2
# [12] = test system: non-malignant human keratinocyte cell line; design: method as in PMID 32054048; conditions: read-out: human keratinocyte cell line IC50 (cytotoxicity); cited from earlier work
# [13] = test system: human colon tumour cell line HCT-116; conditions: read-out: HCT-116 IC50 (cytotoxicity); cited from earlier work
# [14] = Plasmodium falciparum, K1, read-out: P. Falc. K1 IC50
# [15] = Trypanosoma cruzi, read-out: T. Cruzi % inhibition
# [16] = Leishmania donovani, read-out: L. Don. % inhibition
# [17] = Plasmodium falciparum, K1, read-out: P. Falc. K1 % inhibition
# [18] = Trypanosoma brucei, RHODESIENSE
# [19] = Trypanosoma brucei, RHODESIENSE, mean of duplicate assays
molecule,measurement,setting,value
"O=C(Cn1ccnc1[N+](=O)[O-])NCc1ccccc1 [benznidazole, reference compound]",pIC50,[1]; Trypanosoma cruzi,5.87
"O=C1C2=C(C3=NCCc4c[nH]c1c43)C1(C=C(Br)C(O)C(Br)=C1)CCN2 (stereo not shown) [Compound 9, 3-dihydrodiscorhabdin C]",pIC50,[2],6.89
same,pIC50,[3],6.77
same,pIC50,[4],5.01
same,pIC50,[5],6.96
same,pIC50,"[6]; mean of duplicate assays, read-out: P. Falc. K1 IC50",6.40
"CCCCCSC1=CC(=O)C(Br)=CC12CCNC1=C2C2=NCCc3c[nH]c(c32)C1=O (stereo not shown) [Compound 4, Thiopentanyl-Discorhabdin C Adduct]",GI50,"[7]; Homo sapiens, read-out: GI50 (50% growth inhibition)",1.4 µM
same,CC50,"[7]; Homo sapiens, read-out: LC50 (50% cell kill)",10.5 µM
same,TGI (total growth inhibition),"[7]; averaged calculated mean over panel, two experiments at the NCI",3.9 µM
"CCCCCNC1[C@@H]2[N+]3=C4C5=C(NCC[C@@]51[C@@H](O)[C@@H](Br)C2(O)O)C(=O)c1[nH]cc(c14)CC3 (stereo partly shown) [Compound 6, Aminopentane Discorhabdin C Dihydrate Adduct]",tumour cell line cytotoxicity / antitumour activity (in words),[7]; NCI human tumour cell line panel,inactive
same,tumour cell mean growth,[7],100.67%
same,pIC50,[8],6.09
same,"SI Pf, antiplasmodial selectivity index = L6 IC50/P f. IC50",[6],3.2
same,pIC50,[6]; [14],6.60
"O=C1C=C2S[C@H]3C[C@]2(C=C1Br)C1=C(N3)C(=O)c2[nH]cc3c2C1=NCC3 [Compound 1, (+)-discorhabdin B]",inhibition at 1.5 µM,[1]; [15],100%
same,inhibition at 1.5 µM,[9]; [16],57%
same,"cytotoxicity (in words, Figure 9)",[10],Cytotoxic
same,inhibition at 1.5 µM,[6]; [17],100%
same,inhibition at 1.5 µM,"[11]; Trypanosoma brucei, RHODESIENSE, read-out: T. B. Rhod. % inhibition",99%
O=C1C2=C3C4=[N+](CCc5c[nH]c1c54)[C@@H]1C(=O)C=C4S[C@@H](C[C@@]43C1O)N2 (stereo partly shown) [Compound 14],inhibition at 12 µM,[1]; [15],9%
same,inhibition at 1.9 µM,[9]; [16],20%
same,pIC50,[8],4.96
same,inhibition at 1.9 µM,[6]; [17],20%
same,pIC50,[11]; [18],5.89
"CCN(CC)CCCC(C)Nc1ccnc2cc(Cl)ccc12 (stereo not shown) [chloroquine, reference compound]",pIC50,[6]; [14],6.70
CSC1=CC(=O)C(Br)=C[C@]12C=CNC1=C2C2=NCCc3cn(C)c(c32)C1=O [Compound 16],pIC50,[8],5.21
same,"SI Pf, antiplasmodial selectivity index = L6 IC50/P f. IC50",[6],3.6
same,pIC50,[6]; [14],5.77
"COc1cc([C@@H]2c3cc4c(cc3[C@H](O)[C@H]3COC(=O)[C@H]23)OCO4)cc(OC)c1OC [podophyllotoxin, reference compound]",pIC50,[8],8.00
O=C1C(Br)=CC2(C=C1Br)CCNC1=C2C2=NCCc3cn(C4C5[N+]6=C7C8=C(NCCC84C(O)C(Br)C5(O)O)C(=O)c4[nH]cc(c47)CC6)c(c32)C1=O (stereo not shown) [Compound 8],pIC50,[1]; Trypanosoma cruzi,4.95
same,pIC50,[9]; Leishmania donovani,4.73
same,pIC50,[8],5.68
same,"SI Pf, antiplasmodial selectivity index = L6 IC50/P f. IC50",[6],0.3
same,pIC50,[6]; [14],5.19
same,activity towards Trypanosoma brucei rhodesiense (in words),[11],sub-micromolar
same,pIC50,[11]; [19],6.15
"O=C1C2=C3C4=[N+](CCc5c[nH]c1c54)C1(O)CCC3(CCN2)CC1 [Compound 7, Discorhabdin C Hydrogenation Product]",tumour cell mean growth,[7],99.57%
same,pIC50,[8]; L6 rat skeletal myoblast cells,5.77
same,"SI Pf, antiplasmodial selectivity index = L6 IC50/P f. IC50",[6],19
same,pIC50,"[6]; Plasmodium falciparum, K1, mean of duplicate assays, read-out: P. Falc. K1 IC50",7.05
"CCCCCCCCCCCCCCCCOP(=O)([O-])OCC[N+](C)(C)C [miltefosine, reference compound]",pIC50,[9]; Leishmania donovani,6.28
O=C1C2=C(C3=NCCc4c[nH]c1c43)c1c(cc(Br)c(O)c1Br)CCN2 [Compound 17],inhibition at 0.8 µM,"[1]; Trypanosoma cruzi, at 0.8 μM, read-out: T. Cruzi % inhibition",0%
same,pIC50,[12],6.25
same,inhibition at 0.8 µM,"[9]; Leishmania donovani, at 0.8 μM, read-out: L. Don. % inhibition",29%
same,pIC50,[13],6.80
same,pIC50,[8],4.39
same,"SI Pf, antiplasmodial selectivity index = L6 IC50/P f. IC50",[6],510
same,pIC50,[6]; [14],7.10
same,activity towards Trypanosoma brucei rhodesiense (in words),[11],sub-micromolar
same,pIC50,[11]; [19],6.48
discorhabdin U [Compound 15],T. Cruzi % inhibition,[1]; at 1.5 μM,100% (1.5)
same,L. Don. % inhibition,[9]; at 1.5 μM,97% (1.5)
same,P. Falc. K1 % inhibition,[6]; at 1.5 μM,100% (1.5)
same,T. B. Rhod. % inhibition,[11]; at 1.5 μM,100% (1.5)
"Cn1cnc(SC2[C@H]3C(=O)C=C4S[C@H]5C[C@]42C2=C(N5)C(=O)c4[nH]cc5c4C2=[N+]3CC5)c1C[C@H](N)C(=O)O (single isomer, unassigned; (+)) [Compound 12, (+)-discorhabdin H2]",pIC50,[1]; Trypanosoma cruzi,4.20
same,pIC50,[9]; Leishmania donovani,4.03
same,pIC50,[8],4.77
same,"SI Pf, antiplasmodial selectivity index = L6 IC50/P f. IC50",[6],1.4
same,pIC50,[6]; [14],4.92
same,pIC50,[11]; [19],5.64
"Nc1nc(N)nc(Nc2ccc([As]3SCC(CO)S3)cc2)n1 (stereo not shown) [melarsoprol, reference compound]",pIC50,[11]; [18],8.00

# Source: article PMC7460216 (Marine Drugs, 2020)
